Test results taken from US7071340B2, “Fungicidal 1-benzoxepin derivatives” (Bayer Cropscience S.A., priority 2001, dated 2006).

What was measured:
Septoria nodorum = test: Biological test on isolated fungi in culture medium, 96-well microplates (Example B2); assay type: cell-based; conditions: Parastagonospora nodorum, 120 h; dose of 50 ppm; culturing 5 days at 20° C.; optical density at 620 nm or 405 nm; read-out: inhibition of Septoria nodorum (percentage of inhibition of the growth, Abbott's formula)
Protocol: (§1) The test is carried out on isolated fungi in a culture medium, in 96-well microplates. The products are dissolved in acetonitrile and are then diluted to 1/50th in methanol, so as to distribute 50 μl for a dose of 50 ppm in each well. Once the compounds are distributed, the microplates are dried under a stream of nitrogen at 40° C. The culture medium and the inoculum are subsequently added.
(§2) The growth of the fungi is measured after culturing for 5 days at 20° C. by reading the optical density at 620 nm or 405 nm, depending on the strains. The effectiveness of the product is the percentage of inhibition of the growth of the fungi calculated according to Abbott's formula, the absorbance of the growth control wells and the absorbance of the treated wells being taken as reference values.
At a dose of 50 ppm, complete or good (at least 70%) inhibition of Septoria nodorum is observed with the compounds described in the following examples: 5, 28, 29, 30, 32, 33, 34, 40, 55, 57, 63, 65, 67, 68, 70, 72, 82 and 86.

Botrytis cinerea = test: Biological test on isolated fungi in culture medium, 96-well microplates (Example B1); assay type: cell-based; conditions: 120 h, dose of 50 ppm, culturing 5 days at 20° C., optical density at 620 nm or 405 nm, read-out: inhibition of Botrytis cinerea (percentage of inhibition of the growth, Abbott's formula)
Protocol: as §1, §2
At a dose of 50 ppm, complete or good (at least 70%) inhibition of Botrytis cinerea is observed with the compounds described in the following examples: 28, 32, 47, 65, 68 and 70.

Monilia fructigena = test: Biological test on isolated fungi in culture medium, 96-well microplates (Example B3); assay type: cell-based; conditions: 120 h, dose of 50 ppm, culturing 5 days at 20° C., optical density at 620 nm or 405 nm, read-out: inhibition of Monilia fructigena (percentage of inhibition of the growth, Abbott's formula)
Protocol: as §1, §2
At a dose of 50 ppm, complete or good (at least 70%) inhibition of Monilia fructigena is observed with the compounds described in the following examples: 28, 32 and 70.

Magnaporthe orysae = test: tissue or blood; assay type: cell-based; conditions: 120 h, read-out: inhibition of Magnaporthe orysae (percentage of inhibition of the growth, Abbott's formula)
Rhizoctonia solani = test: Biological test on isolated fungi in culture medium, 96-well microplates (Example B6); assay type: cell-based; conditions: 120 h, dose of 50 ppm, culturing 5 days at 20° C., optical density at 620 nm or 405 nm, read-out: inhibition of Rhizoctonia solani (percentage of inhibition of the growth, Abbott's formula)
Protocol: as §1, §2
At a dose of 50 ppm, complete or good (at least 70%) inhibition of Rhizoctonia solani is observed with the compounds described in the following examples: 28, 32, 55, 68 and 70.

[1] = tested on: Mycosphaerella graminacola; test: Biological test on isolated fungi in culture medium, 96-well microplates (Example B7); assay type: cell-based; conditions: 120 h, dose of 50 ppm, culturing 5 days at 20° C., optical density at 620 nm or 405 nm, read-out: inhibition of Mycosphaerella graminacola (percentage of inhibition of the growth, Abbott's formula)
Protocol: as §1, §2
At a dose of 50 ppm, complete or good (at least 70%) inhibition of Mycosphaerella graminacola is observed with the compounds described in the following examples: 28, 32, 55 and 70.

Venturia pirina = test: Biological test on isolated fungi in culture medium, 96-well microplates (Example B8); assay type: cell-based; conditions: Venturia pyrina, 120 h; dose of 50 ppm; culturing 5 days at 20° C.; optical density at 620 nm or 405 nm; read-out: inhibition of Venturia pirina (percentage of inhibition of the growth, Abbott's formula)
Protocol: as §1, §2
At a dose of 50 ppm, complete or good (at least 70%) inhibition of Venturia pirina is observed with the compounds described in the following example: 28.

| Compound | inhibition at 50 ppm (Septoria nodorum) [%] | melting point [°C] | also measured |
| --- | --- | --- | --- |
| COC(=O)c1ccc2c(c1)CCC(=CCl)CO2 [Example 5, methyl 3-(chloromethylene)-2,3,4,5-tetrahydro-1-benzoxepin-7-carboxylate] | ≥ 70 | – | – |
| C=C1COc2ccc(C(=O)OC)cc2C(Cc2ccccc2)(S(=O)(=O)c2ccccc2)C1 (stereo not shown) [Example 6, methyl 5-benzyl-3-methylene-5-(phenylsulfonyl)-2,3,4,5-tetrahydro-1-benzoxepin-7-carboxylate] | – | 164 to 165 | – |
| C=C1COc2ccc(C(C)=O)cc2C(S(=O)(=O)c2ccccc2)C1 (stereo not shown) [Example 13, 1-[3-methylene-5-(phenylsulfonyl)-2,3,4,5-tetrahydro-1-benzoxepin-7-yl]ethanone] | – | 124 to 125 | – |
| CC(=O)c1ccc2c(c1)CCC(=O)CO2 [Example 16, 7-acetyl-4,5-dihydro-1-benzoxepin-3(2H)-one] | – | 80 to 82 | – |
| C=C1COc2ccc(C(C)=O)cc2C(Cc2ccccc2)(S(=O)(=O)c2ccccc2)C1 (stereo not shown) [Example 18, 1-[5-benzyl-3-methylene-5-(phenylsulfonyl)-2,3,4,5-tetrahydro-1-benzoxepin-7-yl]ethanone] | – | 131 to 132 | – |
| CC(=O)c1ccc2c(c1)C=CC(=CCl)CO2 [Example 28, 1-[3-(chloromethylene)-2,3-dihydro-1-benzoxepin-7-yl]ethanone] | ≥ 70 | – | inhibition at 50 ppm (Botrytis cinerea): ≥ 70%; inhibition at 50 ppm (Monilia fructigena): ≥ 70%; inhibition at 50 ppm (Magnaporthe orysae): ≥ 70%; inhibition at 50 ppm (Rhizoctonia solani): ≥ 70%; inhibition at 50 ppm [1]: ≥ 70%; inhibition at 50 ppm (Venturia pirina): ≥ 70% |
| CC(=O)c1ccc2c(c1)C(Cc1ccccc1)=CC(=O)CO2 [Example 29, 7-acetyl-5-benzyl-1-benzoxepin-3(2H)-one] | ≥ 70 | – | – |
| CC(=O)c1ccc2c(c1)C(Cc1ccccc1)=CC(=CCl)CO2 [Example 30, 1-[5-benzyl-3-(chloromethylene)-2,3-dihydro-1-benzoxepin-7-yl]ethanone] | ≥ 70 | – | – |
| COC(=O)c1ccc2c(c1)C=CC(=O)CO2 [Example 31, methyl 3-oxo-2,3-dihydro-1-benzoxepin-7-carboxylate] | – | 98 | – |
| COC(=O)c1ccc2c(c1)C=CC(=CCl)CO2 [Example 32, methyl 3-(chloromethylene)-2,3-dihydro-1-benzoxepin-7-carboxylate] | ≥ 70 | 72 to 77 | inhibition at 50 ppm (Botrytis cinerea): ≥ 70%; inhibition at 50 ppm (Monilia fructigena): ≥ 70%; inhibition at 50 ppm (Magnaporthe orysae): ≥ 70%; inhibition at 50 ppm (Rhizoctonia solani): ≥ 70%; inhibition at 50 ppm [1]: ≥ 70% |
| COC(=O)c1ccc2c(c1)C(Cc1ccccc1)=CC(=O)CO2 [Example 33, methyl 5-benzyl-3-oxo-2,3-dihydro-1-benzoxepin-7-carboxylate] | ≥ 70 | – | – |
| COC(=O)c1ccc2c(c1)C(Cc1ccccc1)=CC(=CCl)CO2 [Example 34, methyl 5-benzyl-3-(chloromethylene)-2,3-dihydro-1-benzoxepin-7-carboxylate] | ≥ 70 | – | – |
| C=C1C=Cc2cc(C(=O)O)ccc2OC1 [Example 40, 3-methylene-2,3-dihydro-1-benzoxepin-7-carboxylic acid] | ≥ 70 | 188 | – |
| C=C1C=Cc2cc(C(=O)Nc3ccccc3)ccc2OC1 [Example 41, 3-methylene-N-phenyl-2,3-dihydro-1-benzoxepin-7-carboxamide] | – | 139 | – |
| COC(=O)c1ccc2c(c1)C=CC(=C(Cl)Cl)CO2 [Example 54, methyl 3-(dichloromethylene)-2,3-dihydro-1-benzoxepin-7-carboxylate] | – | 119 to 121 | – |
| O=C(O)c1ccc2c(c1)C=CC(=CCl)CO2 [Example 63, 3-(chloromethylene)-2,3-dihydro-1-benzoxepin-7-carboxylic acid] | ≥ 70 | > 260 | – |
| O=Cc1ccc2c(c1)C=CC(=CCl)CO2 [Example 72, 3-(chloromethylene)-2,3-dihydro-1-benzoxepin-7-carbaldehyde] | ≥ 70 | – | – |
